The results in this text go back to patent US8449898B2 (priority 2007, dated 2013).

The subject of experiment [1] is Phytophthora infestans (the causal agent of tomato late blight). The experiment in a line: whole plant or invertebrate. It counts as in vivo.
Experiment [2] deals with Pseudoperonospora cubensis (the causal agent of cucumber downy mildew). The experiment in a line: Test B: cucumber downy mildew, preventive spray on cucumber seedlings. Format: in vivo.
The mark [3] stands for this setting: Phytophthora infestans, read-out: TLB Obsd, component (b) alone, 0.4 ppm.
Where [4] appears, read: Phytophthora infestans, read-out: TLB Obsd, component (b) alone, 2 ppm.
The mark [5] stands for this setting: Phytophthora infestans, read-out: TLB Obsd, component (b) alone, 10 ppm.
[6] abbreviates: Pseudoperonospora cubensis, component (b) alone 0.4 ppm (Compound 1 0 ppm), read-out: CDM Obsd.
[7] abbreviates: Pseudoperonospora cubensis, component (b) alone 2 ppm (Compound 1 0 ppm), read-out: CDM Obsd.
Setting [8] is: Pseudoperonospora cubensis, component (b) alone 10 ppm (Compound 1 0 ppm), read-out: CDM Obsd.
Where [9] appears, read: Pseudoperonospora cubensis, component (b) alone, 0.4 ppm, read-out: CDM Obsd.
Setting [10] is: Pseudoperonospora cubensis, component (b) alone, 2 ppm, read-out: CDM Obsd.
Where [11] appears, read: Pseudoperonospora cubensis, component (b) alone, 10 ppm, read-out: CDM Obsd.

Each structure is given as a SMILES string. Read-outs that look alike come from different tables or passages of the source.

For `COC(=O)CC(NC(=O)[C@@H](NC(=O)OC(C)C)C(C)C)c1ccc(Cl)cc1` (stereo partly shown) [valiphenal], the “TLB Obsd” value is 8% in experiment [1] (component (b) alone, 0.016 ppm); 8% in experiment [1] (component (b) alone, 0.08 ppm); 8% in experiment [1] (component (b) alone, 0.4 ppm); 32% in experiment [1] (component (b) alone, 2 ppm); 99% in experiment [1] (component (b) alone, 10 ppm). Besides, the “CDM Obsd” value in experiment [2] (component (b) alone 0.016 ppm (Compound 1 0 ppm)) came to 65%; in experiment [2] (component (b) alone 0.08 ppm (Compound 1 0 ppm)), 47%; in experiment [2] (component (b) alone 0.4 ppm (Compound 1 0 ppm)) it was 47%; in experiment [2] (component (b) alone 2 ppm (Compound 1 0 ppm)), 47%; in experiment [2] (component (b) alone 10 ppm (Compound 1 0 ppm)), 57%; in experiment [2] (component (b) alone, 0.016 ppm), 31%. Also, the “CDM Obsd” value is given as 16% in experiment [2] (component (b) alone, 0.08 ppm); 16% in experiment [2] (component (b) alone, 0.4 ppm); 53% in experiment [2] (component (b) alone, 2 ppm); 100% in experiment [2] (component (b) alone, 10 ppm).
With `Cc1ccc(-c2c(Cl)nc(C#N)n2S(=O)(=O)N(C)C)cc1` [cyazofamid], the pest or weed control at 0.016 ppm in experiment [1] (Phytophthora infestans, read-out: TLB Obsd, component (b) alone, 0.016 ppm) turned out to be 25%; in experiment [2] (Pseudoperonospora cubensis, component (b) alone, 0.016 ppm, read-out: CDM Obsd), 43%. Besides, the pest or weed control at 0.08 ppm in experiment [1] (Phytophthora infestans, read-out: TLB Obsd, component (b) alone, 0.08 ppm) amounted to 52%; in experiment [2] (Pseudoperonospora cubensis, component (b) alone, 0.08 ppm, read-out: CDM Obsd), 57%. The pest or weed control at 0.4 ppm worked out at 58% in experiment [1] (setting [3]) and 100% in experiment [2] (setting [9]). Further, the pest or weed control at 2 ppm in experiment [1] (setting [4]) and in experiment [2] (setting [10]) was 100% in each case. Further, the pest or weed control at 10 ppm in experiment [1] (setting [5]) and in experiment [2] (setting [11]) was 100% each time. Moreover, the pest or weed control at 0.016 µg/mL in experiment [2] (Pseudoperonospora cubensis, component (b) alone 0.016 ppm (Compound 1 0 ppm), read-out: CDM Obsd) turned out to be 47%. The pest or weed control at 0.08 µg/mL in experiment [2] (Pseudoperonospora cubensis, component (b) alone 0.08 ppm (Compound 1 0 ppm), read-out: CDM Obsd) came out at 100%. Further, in experiment [2] (setting [6]), the pest or weed control at 0.4 µg/mL was found to be 100%. Besides, the pest or weed control at 2 µg/mL in experiment [2] (setting [7]) stood at 100%. Besides, in experiment [2] (setting [8]), the pest or weed control at 10 µg/mL was 100%.
Regarding `CC(C)CC(C)c1sccc1NC(=O)c1cn(C)nc1C(F)(F)F` (stereo not shown) [penthiopyrad], the pest or weed control at 0.4 ppm is 0% in experiment [1] (Phytophthora infestans, read-out: TLB Obsd (disease control rating), Table A, component (b) alone 0.4 ppm); 0% in experiment [1] (setting [3]); 47% in experiment [2] (Pseudoperonospora cubensis, Table A, component (b) alone 0.4 ppm, read-out: CDM Obsd (disease control rating)); 43% in experiment [2] (Pseudoperonospora cubensis, Table G, component (b) alone at 0.4 ppm, read-out: CDM Obsd); 0% in experiment [2] (setting [9]). For the same compound, the pest or weed control at 2 ppm amounted to 0% in experiment [1] (Phytophthora infestans, read-out: TLB Obsd (disease control rating), Table A, component (b) alone 2 ppm); 22% in experiment [1] (setting [4]); 47% in experiment [2] (Pseudoperonospora cubensis, Table A, component (b) alone 2 ppm, read-out: CDM Obsd (disease control rating)); 33% in experiment [2] (Pseudoperonospora cubensis, Table G, component (b) alone at 2 ppm, read-out: CDM Obsd); 0% in experiment [2] (setting [10]). For the same compound, the pest or weed control at 10 ppm in experiment [1] (Phytophthora infestans, read-out: TLB Obsd (disease control rating), Table A, component (b) alone 10 ppm) was 9%; in experiment [1] (setting [5]) it was 7%; in experiment [2] (Pseudoperonospora cubensis, Table A, component (b) alone 10 ppm, read-out: CDM Obsd (disease control rating)), 47%; in experiment [2] (Pseudoperonospora cubensis, Table G, component (b) alone at 10 ppm, read-out: CDM Obsd), 26%; in experiment [2] (setting [11]), 0%. Further, the pest or weed control at 40 ppm came out at 17% in experiment [1] (Phytophthora infestans, read-out: TLB Obsd (disease control rating), Table A, component (b) alone 40 ppm); 15% in experiment [1] (Phytophthora infestans, read-out: TLB Obsd, component (b) alone, 40 ppm); 47% in experiment [2] (Pseudoperonospora cubensis, Table A, component (b) alone 40 ppm, read-out: CDM Obsd (disease control rating)); 26% in experiment [2] (Pseudoperonospora cubensis, Table G, component (b) alone at 40 ppm, read-out: CDM Obsd); 0% in experiment [2] (Pseudoperonospora cubensis, component (b) alone, 40 ppm, read-out: CDM Obsd). Moreover, the pest or weed control at 200 ppm in experiment [1] (Phytophthora infestans, read-out: TLB Obsd (disease control rating), Table A, component (b) alone 200 ppm) is 17%; in experiment [1] (Phytophthora infestans, read-out: TLB Obsd, component (b) alone, 200 ppm), 7%; in experiment [2] (Pseudoperonospora cubensis, Table A, component (b) alone 200 ppm, read-out: CDM Obsd (disease control rating)) it was 47%; in experiment [2] (Pseudoperonospora cubensis, Table G, component (b) alone at 200 ppm, read-out: CDM Obsd) it was 47%; in experiment [2] (Pseudoperonospora cubensis, component (b) alone, 200 ppm, read-out: CDM Obsd) it was 16%.
Turning to `O=[N+]([O-])c1cc(C(F)(F)F)c(Cl)c([N+](=O)[O-])c1Nc1ncc(C(F)(F)F)cc1Cl` [fluazinam], the pest or weed control at 0.4 ppm in experiment [1] (Phytophthora infestans, read-out: TLB Obsd (disease control rating), Table C, component (b) alone 0.4 ppm) worked out at 17%; in experiment [2] (Pseudoperonospora cubensis, Table C, component (b) alone 0.4 ppm, read-out: CDM Obsd (disease control rating)), 57%. Besides, the pest or weed control at 2 ppm in experiment [1] (Phytophthora infestans, read-out: TLB Obsd (disease control rating), Table C, component (b) alone 2 ppm) is 40%; in experiment [1] (Phytophthora infestans, read-out: TLB Obsd (observed effect, tomato late blight), component (b) alone, 2 ppm) it was 71%; in experiment [2] (Pseudoperonospora cubensis, Table C, component (b) alone 2 ppm, read-out: CDM Obsd (disease control rating)), 60%; in experiment [2] (Pseudoperonospora cubensis, component (b) alone, 2 ppm, read-out: CDM Obsd (observed effect, cucumber downy mildew)), 89%. Moreover, the pest or weed control at 10 ppm in experiment [1] (Phytophthora infestans, read-out: TLB Obsd (disease control rating), Table C, component (b) alone 10 ppm) is 80%; in experiment [1] (Phytophthora infestans, read-out: TLB Obsd (observed effect, tomato late blight), component (b) alone, 10 ppm), 99%; in experiment [2] (Pseudoperonospora cubensis, Table C, component (b) alone 10 ppm, read-out: CDM Obsd (disease control rating)), 91%; in experiment [2] (Pseudoperonospora cubensis, component (b) alone, 10 ppm, read-out: CDM Obsd (observed effect, cucumber downy mildew)) it was 98%. The pest or weed control at 40 ppm was 98% in experiment [1] (Phytophthora infestans, read-out: TLB Obsd (disease control rating), Table C, component (b) alone 40 ppm); 99% in experiment [1] (Phytophthora infestans, read-out: TLB Obsd (observed effect, tomato late blight), component (b) alone, 40 ppm); 100% in experiment [2] (Pseudoperonospora cubensis, Table C, component (b) alone 40 ppm, read-out: CDM Obsd (disease control rating)); 100% in experiment [2] (Pseudoperonospora cubensis, component (b) alone, 40 ppm, read-out: CDM Obsd (observed effect, cucumber downy mildew)). In addition, the pest or weed control at 200 ppm in experiment [1] (Phytophthora infestans, read-out: TLB Obsd (disease control rating), Table C, component (b) alone 200 ppm) came out at 100%; in experiment [1] (Phytophthora infestans, read-out: TLB Obsd (observed effect, tomato late blight), component (b) alone, 200 ppm) it was 100%; in experiment [2] (Pseudoperonospora cubensis, Table C, component (b) alone 200 ppm, read-out: CDM Obsd (disease control rating)) it was 100%; in experiment [2] (Pseudoperonospora cubensis, component (b) alone, 200 ppm, read-out: CDM Obsd (observed effect, cucumber downy mildew)), 100%. The pest or weed control at 0.04 ppm in experiment [1] (Phytophthora infestans, read-out: TLB Obsd (observed effect, tomato late blight), component (b) alone, 0.04 ppm) is 23%; in experiment [2] (Pseudoperonospora cubensis, component (b) alone, 0.04 ppm, read-out: CDM Obsd (observed effect, cucumber downy mildew)), 56%. Moreover, the pest or weed control at 0.4 µg/mL in experiment [2] (setting [6]) was 47%. The pest or weed control at 2 µg/mL in experiment [2] (setting [7]) amounted to 57%. Moreover, in experiment [2] (setting [8]), the pest or weed control at 10 µg/mL came to 92%. Moreover, the pest or weed control at 40 µg/mL in experiment [2] (Pseudoperonospora cubensis, component (b) alone 40 ppm (Compound 1 0 ppm), read-out: CDM Obsd) worked out at 100%. In experiment [2] (Pseudoperonospora cubensis, component (b) alone 200 ppm (Compound 1 0 ppm), read-out: CDM Obsd), the pest or weed control at 200 µg/mL turned out to be 100%.
For `C#CCOc1ccc(CCNC(=O)C(OCC#C)c2ccc(Cl)cc2)cc1OC` (stereo not shown) [mandipropamid], the “TLB Obsd” value is listed as 26% in experiment [1] (Table E, component (b) alone at 0.016 ppm); 33% in experiment [1] (Table E, component (b) alone at 0.08 ppm); 88% in experiment [1] (Table E, component (b) alone at 0.4 ppm); 100% in experiment [1] (Table E, component (b) alone at 2 ppm); 100% in experiment [1] (Table E, component (b) alone at 10 ppm). The “TLB Obsd (observed effect, tomato late blight)” value is 80 in experiment [1] (component (b) alone, 0.08 ppm); 97 in experiment [1] (component (b) alone, 0.4 ppm); 99 in experiment [1] (component (b) alone, 2 ppm); 100 in experiment [1] (component (b) alone, 10 ppm); 100 in experiment [1] (component (b) alone, 40 ppm). Besides, the “CDM Obsd” value in experiment [2] (Table F, component (b) alone at 0.016 ppm) was found to be 33%; in experiment [2] (Table F, component (b) alone at 0.08 ppm), 97%; in experiment [2] (Table F, component (b) alone at 0.4 ppm) it was 100%; in experiment [2] (Table F, component (b) alone at 2 ppm) it was 100%; in experiment [2] (Table F, component (b) alone at 10 ppm) it was 100%. Also, the “CDM Obsd (observed effect, cucumber downy mildew)” value in experiment [2] (component (b) alone, 0.08 ppm) amounted to 86; in experiment [2] (component (b) alone, 0.4 ppm), 100; in experiment [2] (component (b) alone, 2 ppm), 100; in experiment [2] (component (b) alone, 10 ppm), 100; in experiment [2] (component (b) alone, 40 ppm), 100.
